We go through five compounds from patent publication US7037665B1, “Compositions comprising SNORF36 receptor compounds” (H. Lundbeck A/S, priority 1999, dated 2006).

Entries after “also recorded” stand apart in the source; their conditions may differ.

Test [1] addresses T1, SNORF36a (Homo sapiens, UniProt Q9UHM6).
T1 sequence (Q9UHM6 1-478): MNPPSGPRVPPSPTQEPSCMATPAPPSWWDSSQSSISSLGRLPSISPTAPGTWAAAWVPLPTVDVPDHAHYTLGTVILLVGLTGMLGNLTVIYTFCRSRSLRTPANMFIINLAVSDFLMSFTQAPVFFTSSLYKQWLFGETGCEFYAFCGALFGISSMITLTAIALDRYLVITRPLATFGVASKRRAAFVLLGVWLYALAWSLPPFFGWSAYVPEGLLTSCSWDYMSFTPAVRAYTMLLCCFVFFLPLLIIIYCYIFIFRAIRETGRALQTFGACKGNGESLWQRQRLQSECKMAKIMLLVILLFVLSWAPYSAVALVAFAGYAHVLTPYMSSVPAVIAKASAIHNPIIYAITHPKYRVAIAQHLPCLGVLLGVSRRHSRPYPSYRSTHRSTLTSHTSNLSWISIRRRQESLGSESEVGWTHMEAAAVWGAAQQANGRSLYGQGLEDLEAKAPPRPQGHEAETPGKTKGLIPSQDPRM
Put plainly: Intracellular Ca2+ mobilization (FLIPR) in human SNORF36a-transfected Cos-7 cells. In kind it is cell-based. The following applies: for EC50: photobleached SNORF36a-transfected Cos-7 cells, FLIPR, n=3. The procedure:
The intracellular free calcium (Ca^2+) concentration may be measured by the Fluorescence Imager Plate Reader (FLIPR™).
Cells transfected with appropriate DNA as described earlier were plated into clear, flat-bottom, black-wall 96-well plates (Costar) at a density of 80,000-150,000 cells per well and allowed to incubate for 24 hr at 5% CO2, 37° C. Whenever necessary, the cells were placed in a waterbath maintained at 37° C. and were exposed to a lamp light (50W) placed at a distance of approximately 30 cm, 90 to 120 min before the imaging. The growth medium was aspirated and 100 μl of loading medium containing fluo-3 dye was added to each well 60 min before the imaging. The loading medium contained: Hank's BSS (without phenol red) (Gibco), 20 mM HEPES (Sigma), 0.1 or 1% BSA (Sigma), dye/pluronic acid mixture (e.g. 1 mM Flou-3, AM (Molecular Probes) and 10% pluronic acid (Molecular Probes) mixed immediately before use), and 2.5 mM probenecid (Sigma) (prepared fresh). The cells were allowed to incubate for about 1 hour at 5% CO2, 37° C.
Before or during the incubation of cells with the dye-loading medium, the test compound plate was prepared. Since retinoids are chemically unstable and can undergo rapid photoisomerization (Hu et al., 1994), care was taken to weigh, dissolve and prepare appropriate concentrations of the test compound under photographic darkroom lights. The test compounds were diluted in wash buffer (Hank's BSS (without phenol red), 20 mM HEPES, 2.5 mM probenecid) to a 4× final concentration and aliquoted into a clear v-bottom plate (Nunc). The test compounds were protected from light till their addition to cells. Following the incubation with the dye-loading medium, the cells were washed to remove the excess dye. A Denley plate washer was used to gently wash the cells 4 times and leave a 100 μl final volume of wash buffer in each well. The cell plate was placed in the center tray and the test compound plate was placed in the right tray of the FLIPR. The FLIPR software was setup for the experiment, the experiment was run and the data were collected. For the agonist experiment, the sampling rate in the FLIPR was every 1 sec for the first minute and every 2 sec for the next two minutes. In this paradigm, the test compound was added after recording base line for the first 10 sec. For the antagonist experiment, the sampling rate in the FLIPR was every 1 sec for the first minute, every 6 sec for the next 5 minutes, every 1 sec for the next one minute followed by every 2 sec next two minutes. To evaluate the antagonist activity, the test compound was added to the cells 10 sec after commencing the recording and the agonist was added at 310 sec of the recording. Baseline subtraction and negative control corrections were performed on the traces. The collected data were then analyzed using the Excel spreadsheet program.
(Calcium flux is commonly read through the fluorescence of an indicator in the cells.)

Test [2] concerns Control oocytes, not injected with SNORF36a mRNA. In words: Light-elicited currents in control Xenopus oocytes not injected with SNORF36a mRNA. The following applies: control uninjected oocytes pre-incubated with ligand (100 nM, 24 h), n=10 oocytes. In kind it is cell-based, Xenopus laevis. The procedure: (§1) In the present invention, oocytes were harvested from Xenopus laevis and injected with mRNA transcripts as previously described (Quick and Lester, 1994; Smith et al., 1997). SNORF36a RNA transcripts were synthesized using the T7 polymerase (“Message Machine”, Ambion) from the plasmid BO109 linearized with NotI. Oocytes were injected with 5-25 ng synthetic RNA and incubated for 3-8 days at 17° C. Dual electrode voltage clamp (Axon Instruments Inc.) was performed using 3 M KCl-filled glass microelectrodes having resistances of 1-2 MOhm. Unless otherwise specified, oocytes were voltage clamped at a holding potential of −80 mV. During recordings, oocytes were bathed in continuously flowing (1-3 ml/min) medium containing 96 mM NaCl, 2 mM KCl, 1.8 mM CaCl2, 1 mM MgCl2, 5 mM HEPES, pH 7.5 (ND96), and the appropriate ligand.
Experiments were carried out under minimal light conditions which required compound weighing, final dilutions and oocyte recordings to be performed under photographic darkroom lights (“Brightlab Junior” safelight). In some cases, the ligands were briefly exposed to room light (5-10 min.) during the weighing procedure. For eliciting physiological responses from oocytes, the light stimulus was a 60 W tungsten lamp set at a distance of 30 cm from the oocyte. […] All values are expressed as mean ± standard error of the mean.

Test [3] deals with T1, SNORF36a. In words: Light-elicited currents in voltage-clamped Xenopus oocytes expressing SNORF36a. In kind it is cell-based. Set-up: expressed in transfected cells; host or cells: Xenopus laevis oocytes injected with synthetic mRNA transcribed from plasmid BO109. The following applies: pre-incubated in the dark 24-48 h at 100 nM in ND96. The procedure:
as §1
Experiments were carried out under minimal light conditions which required compound weighing, final dilutions and oocyte recordings to be performed under photographic darkroom lights (“Brightlab Junior” safelight). In some cases, the ligands were briefly exposed to room light (5-10 min.) during the weighing procedure. For eliciting physiological responses from oocytes, the light stimulus was a 60 W tungsten lamp set at a distance of 30 cm from the oocyte. Drugs were applied either by superfusion, switching from a series of gravity fed perfusion lines, or by local perfusion from a 10 μl glass capillary tube fixed at a distance of 0.5 mm from the oocyte. Experiments were carried out at room temperature. All values are expressed as mean ± standard error of the mean.

Test [4] addresses T1, SNORF36a. In words: Inositol phosphate assay (phosphoinositide hydrolysis) in human SNORF36a-transfected Cos-7 cells. In kind it is cell-based. On the procedure:
(§2) Human SNORF36a receptor-mediated activation of the inositol phosphate (IP) second messenger pathways was assessed by radiometric measurement of IP products.
(§3) Cells were plated at a density of 70,000 cells per well and allowed to incubate for 24 hours. The cells were then labeled with 0.5 μCi [^3H]myo-inositol overnight at 37° C., 5% CO2. Immediately before the assay, the medium was removed and replaced with 180 μL of Phosphate-Buffered Saline (PBS) containing 10 mM LiCl. The plates were then incubated for 20 min at 37° C., 5% CO2. Following the incubation, the cells were challenged with agonist (20 μl/well; 10× concentration) for 30 min at 37° C. and were simultaneously either exposed or not to a lamp light (50W) placed at approximately 30 cm distance from the cells. The challenge was terminated by the addition of 100 μL of 5% v/v trichloroacetic acid, followed by incubation at 4° C. for greater than 30 minutes. Total IPs were isolated from the lysate by ion exchange chromatography. Briefly, the lysed contents of the wells were transferred to a Multiscreen HV filter plate (Millipore) containing Dowex AGI-X8 (200-400 mesh, formate form). The filter plates were prepared adding 100 μL of Dowex AG1-X8 suspension (50% v/v, water: resin) to each well. […] 200 μL of scintillation cocktail was added to each well, and the radioactivity was determined by liquid scintillation counting.

Test [5] concerns vector-transfected Cos-7 cells. Put plainly: Inositol phosphate assay in empty vector-transfected Cos-7 cells. It is filed as cell-based. The following applies: vector-transfected Cos-7 cells exposed to lamp light. The procedure:
as §2, §3

The mark [6] stands for this setting: antagonist at 10 μM, hSNORF36a-transfected Cos-7 cells, n=2.

With `CC1=C(/C=C/C(C)=C\C=C\C(C)=C\C=O)C(C)(C)CCC1` [9-cis-retinal], a half-maximal response at SNORF36a [1] (EC50) required 0.152 µM.
On to `CC(=O)/C=C/C1=C(C)CCCC1(C)C` [β-ionone], for which the “nature of the antagonism” value on SNORF36a [1] (10 μM against all-trans-retinal and 9-cis-retinal, hSNORF36a-transfected Cos-7 cells) is “insurmountable”. Also, at SNORF36a [1] (setting [6]), the “antagonism of 9-cis-retinal-induced Ca2+ mobilization” value is listed as “significantly antagonized” and the “antagonism of all-trans-retinal-induced Ca2+ mobilization” value is reported as “significantly antagonized”.
On to `CC1=C(/C=C/C(C)=C/C=C/C(C)=C/C=O)C(C)(C)CCC1` [13-cis-retinal], for which the response to light entry in test [2] is recorded as “did not respond to light”. The concentration giving a half-maximal response (EC50) at SNORF36a [1] worked out at 0.477 µM. Further, the “response to light stimulus after pre-incubation” value (from here on “response to light stimulus”) at SNORF36a [3] is recorded as “rapidly desensitizing Cl^− currents”.
Regarding `CC1=C(/C=C/C(C)=C/C=C/C(C)=C/C(=O)O)C(C)(C)CCC1` [ATRA, all-trans-retinoic acid], the “response to light stimulus” value at SNORF36a [3] is recorded as “rapidly desensitizing Cl^− currents”.
For `CC1=C(/C=C/C(C)=C/C=C/C(C)=C/C=O)C(C)(C)CCC1` [all-trans-retinal], the 3H-IP accumulation result on SNORF36a [4] (SNORF36a-transfected Cos-7 cells exposed to lamp light, n=2) is reported as “Concentration-dependent increase”; in test [5], “not in vector-transfected cells”. Further, the 3H-IP levels result on SNORF36a [4] (SNORF36a-transfected Cos-7 cells not exposed to light, n=1) is recorded as “did not change”. Also, the response to light entry in test [2] was “fails to respond to light; also recorded: did not respond to light”. For the same compound, a half-maximal effect on SNORF36a [1] (EC50) was put at 0.263 µM. Moreover, the “response to light stimulus” value on SNORF36a [3] is “rapidly desensitizing Cl^− currents”.

As usually defined, the EC50 is the concentration at which the effect is half-maximal. High values mean a need for much substance, low ones an effect from little substance.
